The record followed here is PMC7180134 (Angewandte Chemie (International ed. in English), 2020).

Each structure is given as a SMILES string.

The assay concerns the target T1, human NTH1 (hNTH1, endonuclease III-like protein 1) (Homo sapiens, UniProt P78549).
T1 sequence (P78549 23-304): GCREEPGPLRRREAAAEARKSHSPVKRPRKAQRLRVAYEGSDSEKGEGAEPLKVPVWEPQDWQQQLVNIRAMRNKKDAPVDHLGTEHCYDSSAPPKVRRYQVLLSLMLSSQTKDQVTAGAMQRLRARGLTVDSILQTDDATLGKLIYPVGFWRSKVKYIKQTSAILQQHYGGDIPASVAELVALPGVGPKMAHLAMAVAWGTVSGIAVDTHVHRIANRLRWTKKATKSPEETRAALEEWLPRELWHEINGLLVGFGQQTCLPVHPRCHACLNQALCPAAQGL
It is filed as biochemical.

For orientation: IC50 means the concentration at which inhibition is half-maximal. A high value points to lower potency. Take `Nc1ncnc2c1c(-c1cccc(OCc3ccccc3)c1)cn2[C@H]1C[C@@H](CN2CCC2)C1` [NVP-AEW541]: the IC50 stood at 780 nM. This lies in the sub-micromolar range.
